≈ marks a conversion by molar mass, not a printed value.
Assays:
Format in all cases: cell-based
[1] = system: Mycoplasma gallisepticum R strain (MG-R); experiment: Anti-mycoplasma activity assay, MIC; conditions: Mycoplasmoides gallisepticum
Method: (§1) The minimum inhibitory concentration of the pleuromutilin derivative containing thiazole-pyridine benzyl quaternary ammonium salt side chain against different mycoplasmas was tested with tiamulin as (purchased from Shanghai Yuanye Bio-Technology Co., Ltd) a positive control using a microbroth dilution method, and the antibacterial effect of the compound against different mycoplasmas was evaluated.
(§2) Experimental strains include Mycoplasma hyopneumoniae standard strain J strain (Mhp-J; NCTC 10110), Mycoplasma hyopneumoniae clinical isolate LH strain (Mhp-LH), Mycoplasma hyorhini standard strain BTS-7 strain (Mhr-BTS-7; NCTC 10130), Mycoplasma gallisepticum R strain (MG-R) and Mycoplasma synoviae WVU1853 strain (MS-WVU1853; NCTC 10124) (purchased from National Collection of Type Cultures, United Kingdom).
(§3) The specific operation steps are as follows: • (1) preparation of KM2 medium: 38.9 g of KM2 medium (purchased from Guangdong Huankai Microbial Sci. & Tech. Co., Ltd.) was weighed, added to 800 mL of distilled water, boiled and dissolved, and autoclaved at 115° C. for 20 min for later use. • (2) preparation of bacterial liquid stock: 0.5 mL of each of Mycoplasma hyopneumoniae (Mhp), Mycoplasma hyorhina (Mhr), Mycoplasma gallisepticum (MG) and Mycoplasma synoviae (MS) was taken and transferred to 4.5 mL of KM2 liquid medium, and when the colour of the medium turned yellow, each of the bacteria was sub-packaged at 0.5 mL per tube, and stored as the bacterial liquid at −70° C. • (3) determination of bacterial liquid titre (colour change unit, CCU): 96-well plate method was used to measure the bacterial liquid titre. The preserved bacterial liquid stock was taken from −70° C., melt and equilibrated to room temperature. 0.18 mL of KM2 medium was added to each well of the middle 4 rows of the 96-well plate (that is, 4 parallels), 0.02 mL of the bacterial liquid stock was taken and added to the wells of the first column, respectively, and subjected to 10-fold dilution until 10^−11. A negative control containing only KM2 medium was set (column 12). The plate was sealed and put into an incubator at 37° C., and the results were observed day by day. The highest dilution at which the colour of the medium can change was the CCU/mL of the strain. • (4) determination of MIC: the minimum inhibitory concentration of the compound against mycoplasmas was determined by a microbroth dilution method. Each drug to be tested was prepared as a stock solution with a concentration of 2560 μg/mL, and each drug stock solution was 2-fold diluted with KM2 liquid medium, and the test concentration range was 0.015-128 μg/mL (large concentration gradient) and 0.000004-0.06 μg/mL (small concentration gradient). An appropriate amount of seed bacterial liquid was taken and diluted to 10^4 CCU/mL serially according to its titre. Drugs of various dilutions were added sequentially to the 96-well plate, and then an equal amount of diluted bacterial liquid was added. 200 μL of diluted mycoplasma liquid was set as a positive control, 200 μL of KM2 liquid culture medium was set as a negative control, and a solvent control group (10 μL of drug solvent+190 μL of mycoplasma liquid) was also set. Three parallels were set for each experiment. After all the culture plates were sealed, they were allowed to culture at 37° C. and observed daily, and the final MIC values were recorded. (See FIG. 22 for the MIC determination results of the representative compound 7 against 5 mycoplasma strains)

[2] = system: Mycoplasma hyopneumoniae standard strain J strain (Mhp-J; NCTC 10110); experiment: Anti-mycoplasma activity assay, MIC; conditions: Mesomycoplasma hyopneumoniae, NCTC10110
Method: as §1, §2, §3

[3] = system: Mycoplasma synoviae WVU1853 strain (MS-WVU1853; NCTC 10124); experiment: Anti-mycoplasma activity assay, MIC; conditions: Mycoplasmopsis synoviae, NCTC10124
Method: as §1, §2, §3

[4] = system: Mycoplasma hyorhini standard strain BTS-7 strain (Mhr-BTS-7; NCTC 10130); experiment: Anti-mycoplasma activity assay, MIC; conditions: NCTC10130
Method: as §1, §2, §3

[5] = system: Mycoplasma hyopneumoniae clinical isolate LH strain (Mhp-LH); experiment: Anti-mycoplasma activity assay, MIC; conditions: Mesomycoplasma hyopneumoniae
Method: as §1, §2, §3

[6] = system: Staphylococcus aureus ATCC 29213; experiment: MIC, microbroth dilution, standard strains; conditions: ATCC29213, ATCC 29213, read-out: Minimum inhibitory concentration
Method: (§4) The minimum inhibitory concentration (MIC) of the pleuromutilin derivative containing thiazole-pyridine benzyl quaternary ammonium salt side chain was tested with moxifloxacin as a positive control (purchased from Shanghai Macklin Biochemical Technology Co., Ltd.) using a microbroth dilution method.
(§5) Standard strains include gram-positive bacteria: Staphylococcus epidermidis ATCC 12228, Staphylococcus aureus ATCC 29213, ATCC 25923 and methicillin-resistant Staphylococcus aureus ATCC 33591; gram-negative bacteria: Salmonella ATCC 14028, Acinetobacter baumannii ATCC 19606, Escherichia coli ATCC 25922 and CMCC 44103, all the strains were purchased from the American Type Culture Collection.

[7] = system: methicillin-resistant Staphylococcus aureus ATCC 33591; experiment: MIC, microbroth dilution, standard strains; conditions: ATCC33591, ATCC 33591, read-out: Minimum inhibitory concentration
Method: as §4, §5

[8] = system: Staphylococcus aureus ATCC 25923; experiment: MIC, microbroth dilution, standard strains; conditions: ATCC25923, ATCC 25923, read-out: Minimum inhibitory concentration
Method: as §4, §5

[9] = system: Escherichia coli CMCC 44103; experiment: MIC, microbroth dilution, standard strains; conditions: CMCC44103, CMCC 44103, read-out: Minimum inhibitory concentration
Method: as §4, §5

[10] = system: Staphylococcus epidermidis ATCC 12228; experiment: MIC, microbroth dilution, standard strains; conditions: ATCC12228, ATCC 12228, read-out: Minimum inhibitory concentration
Method: as §4, §5

[11] = system: Escherichia coli ATCC 25922; experiment: MIC, microbroth dilution, standard strains; conditions: ATCC25922, ATCC 25922, read-out: Minimum inhibitory concentration
Method: as §4, §5

Salmonella ATCC 14028 = experiment: MIC, microbroth dilution, standard strains; conditions: ATCC14028, ATCC 14028, read-out: Minimum inhibitory concentration
Method: as §4, §5

[12] = system: Acinetobacter baumannii ATCC 19606; experiment: MIC, microbroth dilution, standard strains; conditions: ATCC19606, ATCC 19606, read-out: Minimum inhibitory concentration
Method: as §4, §5

- MIC [1]: 0.125 µg/mL (≈ 0.253 µM)
- MIC [2]: 0.03 µg/mL (≈ 0.0608 µM)
- MIC [3]: 2 µg/mL (≈ 4.05 µM)
- MIC [4]: 0.03 µg/mL (≈ 0.0608 µM)
- MIC [5]: 0.015 µg/mL (≈ 0.0304 µM)
- MIC [6]: > 128 µg/mL
- MIC [7]: 128 µg/mL (≈ 259 µM)
- MIC [8]: 64 µg/mL (≈ 130 µM)
- MIC [9]: 64 µg/mL (≈ 130 µM)
- MIC [10]: 16 µg/mL (≈ 32.4 µM)
- MIC [11]: 128 µg/mL (≈ 259 µM)
- MIC (Salmonella ATCC 14028): 128 µg/mL (≈ 259 µM)
- MIC [12]: 64 µg/mL (≈ 130 µM)
SMILES: C=C[C@]1(C)C[C@@H](OC(=O)CSCCN(CC)CC)[C@]2(C)[C@H](C)CC[C@]3(CCC(=O)[C@H]32)[C@@H](C)[C@@H]1O [Tiamulin, tiamulin, reference compound]

Reference: patent US12384771B2, “Pleuromutilin derivative containing thiazole-pyridine benzyl quaternary ammonium salt side chain and preparation method and use thereof” (SHAANXI UNIVERSITY OF SCIENCE AND TECHNOLOGY, priority 2022, dated 2025)
